Experimental data as given in patent publication US8791099B2, “Transition metal complexes of corroles for preventing cardiovascular diseases or disorders” (Technion Research and Development Foundation Ltd., priority 2007, dated 2014).

Experiments:
[1] = Decomposition of peroxynitrite, comparison with punicalagin; settings: calculated from rate constants
Protocol: For initial assessment of possible superiority of the metallocorroles relative to natural antioxidants, we have determined the effect of excess (45-135 μM) punicalagin—the active polyphenolic hydrolysable tannin ingredient of pomegranate juice (Tzulker et al., 2007), on decomposition of peroxynitrite (40 μM).

[2] = system: mouse peritoneal macrophages (MPM); experiment: Cholesterol efflux from MPM of treated E^0 mice; settings: drinking water 0.04 mM (8 mg/Kg/day), 14 weeks
Protocol: Mouse peritoneal macrophages were incubated with [^3H]-labeled cholesterol for 1 h at 37° C. followed by cell wash in ice-cold PBS (3×) and further incubation in the absence or presence of 100 μg of human HDL protein/ml for 3 h at 37° C. Cellular and medium [^3H]-labels were quantitated and HDL-mediated cholesterol efflux was calculated as the ratio of [^3H]-label in the medium/[^3H]-label in the medium+[^3H]-label in cells.

J-774 macrophages = experiment: Cholesterol efflux from J-774 macrophages by serum of treated E^0 mice; settings: drinking water 0.04 mM (8 mg/Kg/day), 14 weeks
Protocol: J-774 macrophages were incubated with [^3H]-labeled cholesterol for 1.5 h at 37° C. followed by cell wash in ice-cold PBS (3×) and further incubation in the presence of 15 μL mice serum for 3 h at 37° C. Cellular and medium [^3H]-labels were quantitated and HDL-mediated cholesterol efflux was calculated as the ratio of [^3H]-label in the medium/[^3H]-label in the medium+[^3H]-label in cells.

[3] = system: mouse peritoneal macrophages (MPM); experiment: Cholesterol synthesis by MPM of treated E^0 mice; settings: drinking water 0.04 mM (8 mg/Kg/day), 14 weeks
Protocol: Cellular cholesterol biosynthesis was assayed after incubation of macrophages (3×10^6 well^−1) overnight with DMEM containing 2% BSA followed by additional 3 h of incubation at 37° C. with [^3H]-acetate (3.3 μCi/ml). Cellular lipids were extracted with hexane:isopropanol (3:2, v:v), and the upper phase was dried under nitrogen. The lipids were then separated by TLC using an eluent of hexane:ether:acetic acid (130:30:1.5, v:v:v). Unesterified cholesterol spots were visualized by iodine vapor (by using standard for identification) and counted with β-counter.

Row | Compound | Minimal concentration required for reducing the half lifetime of peroxynitrite by 50% [1] | Increase in cholesterol efflux from the E^0 MPM [2] | Increase in serum-mediated cholesterol efflux from J-774 macrophages (J-774 macrophages) | Increase of cholesterol synthesis by MPMs [3]
1 | O=C1O[C@H]2[C@@H]3OC(=O)c4cc(O)c(O)c(O)c4-c4c(O)c(O)c5oc(=O)c6c(c(O)c(O)c7oc(=O)c4c5c76)-c4c(cc(O)c(O)c4O)C(=O)OC[C@H]3OC(O)[C@@H]2OC(=O)c2cc(O)c(O)c(O)c2-c2c1cc(O)c(O)c2O (mixture of isomers) [punicalagin, reference compound] | 250 mol % |  |  | 
2 | COc1c(F)c(F)c(C2=C3C=CC(=N3)C(c3c(F)c(F)c(OC)c(F)c3F)=c3ccc4[n]3[Fe]3[n]5c(cc(S(=O)(=O)O)c5C=4c4c(F)c(F)c(OC)c(F)c4F)-c4c(S(=O)(=O)O)cc2[n]43)c(F)c1F [2-Fe, 5,10,15-tris(4-methoxy-2,3,5,6-tetrafluorophenyl)-2,17-bis(sulfonic acid)-corrolato iron(III)] |  | 14% | 9% | 8%
